Data as given in ChEMBL document CHEMBL5241075, “Advancement of chimeric hybrid drugs to cure malaria infection: An overview with special emphasis on endoperoxide pharmacophores” (Eur J Med Chem, 2021).
In brackets after ≈: the same amount, converted by molar mass.

What was measured:
Plasmodium falciparum [1] = test: Antiplasmodial activity against Plasmodium falciparum K1; format: functional, organism-based
[2] = Therapeutic index, ratio of IC50 for antiproliferative activity against human HeLa cells to IC50 for antiplasmodial activity against Plasmodium falciparum K1; format: toxicity, cell-based; conditions: for selectivity ratio: HeLa cells, read-out: Ratio IC50
Hemozoin = test: Inhibition of Beta-hematin in Plasmodium falciparum
Plasmodium falciparum [3] = test: Antiplasmodial activity against Plasmodium falciparum D10; format: functional, organism-based
Plasmodium falciparum [4] = test: Resistance index, ratio of IC50 for antiplasmodial activity against Plasmodium falciparum K1 to IC50 for antiplasmodial activity against Plasmodium falciparum D10; format: functional
HeLa = test: Antiproliferative activity against human HeLa cells assessed as cell growth inhibition; format: functional, cell-based
Plasmodium falciparum [5] = test: Antimalarial activity against chloroquine resistant Plasmodium falciparum FcB1; format: functional, organism-based
Plasmodium falciparum [6] = test: Antiplasmodial activity against chloroquine resistant Plasmodium falciparum; format: functional, organism-based
Plasmodium falciparum [7] = test: Antiplasmodial activity against Plasmodium falciparum 3D7; format: functional, organism-based
Plasmodium falciparum [8] = test: Antiplasmodial activity against Plasmodium falciparum Nigerian; format: functional, organism-based
Plasmodium falciparum [9] = test: Antiplasmodial activity against Plasmodium falciparum FcM29; format: functional, organism-based
Plasmodium falciparum [10] = test: Antiplasmodial activity against Plasmodium falciparum NF54; format: functional, organism-based
Plasmodium falciparum [11] = test: Antiplasmodial activity against Plasmodium falciparum DD2; format: functional, organism-based
Plasmodium falciparum [12] = test: Antiplasmodial activity against Plasmodium falciparum D6; format: functional, organism-based
Plasmodium falciparum [13] = test: Antiplasmodial activity against Plasmodium falciparum W2; format: functional, organism-based
Plasmodium falciparum [14] = test: Antiplasmodial activity against Plasmodium falciparum TM91C235; format: functional, organism-based
[15] = Stability of compound at pH 2 assessed as half life; format: physicochemical; conditions: buffer
Plasmodium berghei = test: Antimalarial activity against liver stage Plasmodium berghei; format: functional, organism-based
Caco-2 = test: Cytotoxicity against human Caco-2 cells assessed as reduction in cell viability; format: functional

**Q.** For C[C@@H]1CC[C@H]2[C@@H](C)C(OCc3ccc(C(=O)N(CCNc4ccnc5cc(Cl)ccc45)CC(=O)NC(C)(C)C)cc3)O[C@@H]3O[C@]4(C)CC[C@@H]1[C@]32OO4.O=C(O)CC(O)(CC(=O)O)C(=O)O (stereo not given in full), which IC50 (Plasmodium falciparum [1]) is on record?
**A.** The IC50 was 0.018 µM.

**Q.** And the “Ratio IC50” value [2]?
**A.** The value was 20.

**Q.** And the IC50 (Hemozoin)?
**A.** The IC50 was 0.4 equiv.

**Q.** And the IC50 (Plasmodium falciparum [3])?
**A.** Its IC50 is 0.024 µM.

**Q.** What about the “Ratio IC50” value (Plasmodium falciparum [4]) of the same molecule?
**A.** The value was 0.7.

**Q.** And the IC50 (HeLa; hela)?
**A.** Its IC50 is 0.356 µM.

**Q.** With CCOP(=O)(CCCN(O)C(=O)CCC(=O)N(CCCNC(=O)CC[C@H]1O[C@@H]2O[C@]3(C)CC[C@H]4[C@H](C)CC[C@@H]([C@H]1C)C24OO3)CCCNC(=O)CC[C@H]1O[C@@H]2O[C@]3(C)CC[C@H]4[C@H](C)CC[C@@H]([C@H]1C)C24OO3)OCC as the molecule, how does the IC50 (Plasmodium falciparum [5]) read?
**A.** The IC50 was 0.36 µM.

**Q.** With C[C@@H]1CC[C@@H]2[C@]34OO[C@@](C)(CC[C@@H]13)O[C@H]4OC(Nc1ncccn1)[C@@]2(C)Br (stereo not given in full) as the molecule, how does the IC50 (Plasmodium falciparum [6]) read?
**A.** The IC50 was 0.16 ng/mL.

**Q.** Which IC50 (Plasmodium falciparum [7]) does the source give for C1CCC2(C1)OOC1(CCN(c3nc(N4CCOCC4)nc(N4CCOCC4)n3)CC1)OO2 here?
**A.** The IC50 was 0.00552 µM.

**Q.** Which results are given for Clc1cc(NCCCCNC2CCC3(CC2)OO[C@@]2(c4ccccc4)CC(c4ccccc4)=C[C@H]2O3)c2ncccc2c1 (stereo not given in full)?
**A.** IC50 (Plasmodium falciparum [8]): 0.041 µM; IC50 (Plasmodium falciparum [5]): 0.041 µM; IC50 (Plasmodium falciparum [9]): 0.041 µM

**Q.** With C[C@H]1[C@@H](OC(=O)CCC(=O)Nc2cccc3ncnc(Nc4ccc(Cl)c(Cl)c4)c23)O[C@@H]2O[C@]3(C)CC[C@H]4[C@H](C)CC[C@@H]1[C@@]24OO3 as the molecule, how does the EC50 (Plasmodium falciparum [7]; read-out: EC50) read?
**A.** Its EC50 is 0.0024 µM.

**Q.** With COc1ccc2nc3cc(Cl)ccc3c(NCCN3CCNCC3)c2c1 as the molecule, how does the IC50 (Plasmodium falciparum [10]) read?
**A.** Its IC50 is 0.0073 µM.

**Q.** And the IC50 (Plasmodium falciparum [11])?
**A.** The IC50 was 0.142 µM.

**Q.** Which results are given for C[C@@H]1CC[C@H]2[C@@H](C)C(OCc3ccc(C(=O)N(CCNc4ccnc5cc(Cl)ccc45)CC(=O)NC4CCCCC4)cc3)O[C@@H]3O[C@]4(C)CC[C@@H]1[C@]32OO4 (stereo not given in full)?
**A.** IC50 (Plasmodium falciparum [1]; Plasmodium falciparum, K1): 0.023 µM; selectivity ratio [2]: 12; IC50 (Hemozoin): 0.45 equiv; IC50 (Plasmodium falciparum [3]; Plasmodium falciparum, D10): 0.026 µM; Ratio IC50 (Plasmodium falciparum [4]): 1; IC50 (HeLa; Homo sapiens, HeLa): 0.286 µM

**Q.** What does the source list for CCCC1O[C@@H]2O[C@]3(C)CC[C@H]4[C@H](C)CC[C@@H]([C@H]1C)[C@@]24OO3 (stereo not given in full)?
**A.** IC50 (Plasmodium falciparum [12]): 0.41 ng/mL; IC50 (Plasmodium falciparum [13]): 0.16 ng/mL

**Q.** Which IC50 (Plasmodium falciparum [10]) does the source give for COc1ccc2nc3cc(Cl)ccc3c(N3CCN(CCO[C@H]4O[C@@H]5O[C@]6(C)CC[C@H]7[C@H](C)CC[C@@H]([C@H]4C)[C@@]57OO6)C(C)C3)c2c1 (stereo not given in full) here?
**A.** The IC50 was 0.017 µM.

**Q.** What about the IC50 (Plasmodium falciparum [11]) of the same molecule?
**A.** The IC50 was 0.0413 µM.

**Q.** What does the source list for CC(=O)O[C@H]1CC2C(C3CC[C@H]([C@H](C)CCC(=O)NCCNc4ccnc5cc(Cl)ccc45)[C@]31C)[C@H](OC(C)=O)C[C@@H]1CC3(CC[C@H]21)OOC1(CCCCC1)OO3 (stereo not given in full)?
**A.** IC50 (Plasmodium falciparum [12]): 0.00653 µM; IC90 (Plasmodium falciparum [12]): 0.0106 µM; IC50 (Plasmodium falciparum [14]): 0.00854 µM; IC90 (Plasmodium falciparum [14]): 0.0172 µM; IC50 (Plasmodium falciparum [13]): 0.00447 µM; IC90 (Plasmodium falciparum [13]): 0.0105 µM

**Q.** For C[C@H]1[C@@H](OCc2ccc(C(=O)O)cc2)O[C@@H]2O[C@@]3(C)CC[C@H]4[C@H](C)CC[C@@H]1[C@@]24OO3, which IC50 (Plasmodium falciparum [1]; Plasmodium falciparum, K1) is on record?
**A.** Its IC50 is 0.006 µM.

**Q.** And the EC50 (Plasmodium falciparum [1]; Plasmodium falciparum, K1, read-out: ED50 (the source's name))?
**A.** The EC50 was 1.4 ng/mL (≈ 3.35 nM).

**Q.** What about the IC50 (Plasmodium falciparum [3]; Plasmodium falciparum, D10) of the same molecule?
**A.** Its IC50 is 0.006 µM.

**Q.** What about the EC50 (Plasmodium falciparum [7]; read-out: ED50 (the source's name)) of the same molecule?
**A.** Its EC50 is 4 ng/mL.

**Q.** And the “Ratio IC50” value (Plasmodium falciparum [4])?
**A.** The value was 0.75.

**Q.** Which IC50 (Plasmodium falciparum [1]; Plasmodium falciparum, K1) does the source give for C[C@@H]1CC[C@H]2[C@@H](C)C(OCc3ccc(C(=O)N(CCCCNc4ccnc5cc(Cl)ccc45)CC(=O)NC4CCCCC4)cc3)O[C@@H]3O[C@]4(C)CC[C@@H]1[C@]32OO4 (stereo not given in full) here?
**A.** The IC50 was 0.021 µM.

**Q.** What about the selectivity ratio [2] of the same molecule?
**A.** Its selectivity ratio is 8.

**Q.** And the IC50 (Hemozoin)?
**A.** The IC50 was 0.31 equiv.

**Q.** What about the IC50 (Plasmodium falciparum [3]; Plasmodium falciparum, D10) of the same molecule?
**A.** Its IC50 is 0.035 µM.

**Q.** And the “Ratio IC50” value (Plasmodium falciparum [4])?
**A.** Its value is 0.88.

**Q.** What about the IC50 (HeLa; Homo sapiens, HeLa) of the same molecule?
**A.** The IC50 was 0.169 µM.

**Q.** For CCOC1(C(F)(F)F)O[C@@H]2O[C@]3(C)CC[C@H]4[C@H](C)CC[C@@H]([C@H]1C)[C@@]24OO3 (stereo not given in full), which IC50 (Plasmodium falciparum [6]) is on record?
**A.** The IC50 was 0.0033 µM.

**Q.** What about the half-life [15] of the same molecule?
**A.** The half-life was 20.8 days.

**Q.** For COc1cc(NC(C)CCCNC2CCC3(CC2)OO[C@@]2(C)CCC(C(C)C)=C[C@H]2O3)c2ncccc2c1 (stereo not given in full), which IC50 (Plasmodium falciparum [8]) is on record?
**A.** The IC50 was 0.108 µM.

**Q.** And the IC50 (Plasmodium falciparum [5])?
**A.** Its IC50 is 0.108 µM.

**Q.** What about the IC50 (Plasmodium falciparum [9]) of the same molecule?
**A.** Its IC50 is 0.108 µM.

**Q.** With CCC1O[C@@H]2O[C@]3(C)CC[C@H]4[C@H](C)CC[C@@H]([C@H]1C)[C@@]24OO3 (stereo not given in full) as the molecule, how does the IC50 (Plasmodium falciparum [12]) read?
**A.** The IC50 was 1.09 ng/mL.

**Q.** What about the IC50 (Plasmodium falciparum [13]) of the same molecule?
**A.** Its IC50 is 0.29 ng/mL.

**Q.** Which IC50 (Plasmodium falciparum [6]) does the source give for C[C@@H]1CC[C@@H]2[C@]34OO[C@@](C)(CC[C@@H]13)O[C@H]4OC(Nc1cccc(F)c1)[C@@]2(C)Br (stereo not given in full) here?
**A.** The IC50 was 0.16 ng/mL.

**Q.** For Clc1cc(NCCNC2CCC3(CC2)OO[C@@]2(c4ccccc4)CC(c4ccccc4)=C[C@H]2O3)c2ncccc2c1 (mixture of isomers), which IC50 (Plasmodium falciparum [8]) is on record?
**A.** Its IC50 is 0.022 µM.

**Q.** What about the IC50 (Plasmodium falciparum [5]) of the same molecule?
**A.** The IC50 was 0.022 µM.

**Q.** And the IC50 (Plasmodium falciparum [9])?
**A.** The IC50 was 0.022 µM.

**Q.** What does the source list for C[C@@H]1CC[C@H]2[C@@H](C)C(O)(C(F)(F)F)O[C@@H]3O[C@]4(C)CC[C@@H]1[C@]32OO4 (stereo not given in full)?
**A.** IC50 (Plasmodium falciparum [6]): 0.0094 µM; half-life [15]: 31.7 days

**Q.** With COc1cc(NC(C)CCCNC(=O)C2CCC3(CC2)OOC2(OO3)C3CC4CC(C3)CC2C4)c2nccc(F)c2c1 (stereo not given) as the molecule, how does the EC50 (Plasmodium berghei) read?
**A.** Its EC50 is 2.38 µM.

**Q.** And the CC50 (Caco-2)?
**A.** Its CC50 is over 50000 µM.

**Q.** What about the EC50 (Plasmodium falciparum [13]) of the same molecule?
**A.** The EC50 was 0.057 µM.

**Q.** For C[C@@H]1CC[C@H]2[C@@H](C)C(Oc3ccccc3)O[C@@H]3O[C@]4(C)CC[C@@H]1[C@]32OO4 (stereo not given in full), which IC50 (Plasmodium falciparum [6]) is on record?
**A.** The IC50 was 0.0053 µM.

**Q.** For C[C@H]1[C@@H](OC(=O)CCC(=O)Oc2ccc(Nc3ncnc4ccccc34)cc2)O[C@@H]2O[C@]3(C)CC[C@H]4[C@H](C)CC[C@@H]1[C@@]24OO3, which EC50 (Plasmodium falciparum [7]; read-out: EC50) is on record?
**A.** Its EC50 is 0.0038 µM.
